Six molecules from US8178539B2, “Substituted 3,4,6,7-tetrahydro-5H-1,2a,4a,8-tetraazacyclopenta[cd]phenalenes and methods” (3M Innovative Properties Company, priority 2006, dated 2012) can be followed below.

The structures appear in SMILES notation. Where a name gives a salt, the structure may show the parent alone.

Usually melting point stands for the temperature of the solid-liquid transition. The molecule `CCOCc1nc2c(N)nc3c4c2n1CC(C)(C)N4CCC3` (as salt: hydrochloride) [Example 6, 2-(Ethoxymethyl)-4,4-dimethyl-3,4,6,7-tetrahydro-5H-1,2a,4a,8-tetraazacyclopenta[cd]phenalen-9-amine hydrochloride] had a melting point of 222 to 227 °C. Take `CCOCc1nc2c(N)nc3c4c2n1CCN4CCC3` [Example 1, 2-(Ethoxymethyl)-3,4,6,7-tetrahydro-5H-1,2a,4a,8-tetraazacyclopenta[cd]phenalen-9-amine]: the melting point was in the range of 172 to 173 °C. The result for `COCCc1nc2c(N)nc3c4c2n1CCN4CCC3` [Example 2, 2-(2-Methoxyethyl)-3,4,6,7-tetrahydro-5H-1,2a,4a,8-tetraazacyclopenta[cd]phenalen-9-amine] reads 171 to 172 °C; that for `CCCc1nc2c(N)nc3c4c2n1CCN4CCC3` [Example 3, 2-Propyl-3,4,6,7-tetrahydro-5H-1,2a,4a,8-tetraazacyclopenta[cd]phenalen-9-amine], 225 to 230 °C; that for `CCOCc1nc2c(N)nc3c4c2n1[C@H](C)CN4CCC3` [Example 4, (3R)-2-(Ethoxymethyl)-3-methyl-3,4,6,7-tetrahydro-5H-1,2a,4a,8-tetraazacyclopenta[cd]phenalen-9-amine], 164.5 to 166.1 °C. In turn, `CCOCc1nc2c(N)nc3c4c2n1[C@@H](C)CN4CCC3` [Example 5, (3S)-2-(Ethoxymethyl)-3-methyl-3,4,6,7-tetrahydro-5H-1,2a,4a,8-tetraazacyclopenta[cd]phenalen-9-amine] gave a melting point of 164.1 to 165.6 °C.
